What all share (assay type): cell-based
In one data set the target is T1, PLK1 (Homo sapiens, UniProt P53350).
T1 construct: endogenous in cells; host or cells: HeLa LgBit (Plk1-HiBit KI): HeLa stably expressing LgBit, with a CRISPR/Cas9 knock-in of HiBit at the endogenous PLK1 locus
The experiment in a line: Luciferase assay for PLK1 in HeLa LgBit (Plk1-HiBit KI) cell line. The note with it: 300 nM compound, luminescence after 9 hours. Summed up: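 Luminescence, followed in real time after adding compound at 300 nM and Endurazine substrate, is reported relative to DMSO-treated wells. Cells are a HeLa LgBit line with a Plk1-HiBit knock-in, synchronized by 2 mM thymidine for 24 h, released, and cultured 18 h before treatment.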

The test system of a further data set is MRC-5 cell line. The experiment in a line: Cell viability assay for MRC-5 cell line (EZ-Cytox). The following applies: for IC50: Homo sapiens, MRC5, 120 h, MRC-5 normal cell line, 5 days, 10000 nM to 1.52 nM, N.D. = no cytotoxicity until 10 μM, read-out: Activity: IC50 value of Exemplary Compound to MRC-5 cell line. How it is done:
4. Cell Viability Assay for MRC-5 Cell Line
(1) Culture of MRC-5 Cell Line
Passage of cultured cells was maintained within P15.
(2) Treatment of Compounds of the Present Invention
Then, it was cultured in 37° C.
(3) Cytotoxicity Experiment
CO2 incubator for 4 hours.

A further data set concerns NCI-H526 cell line. The experiment in a line: Cell viability assay for H526 cell (EZ-Cytox). The note with it: Homo sapiens, NCI-H526, 120 h; H526 cells, 5 days, 3000 nM to 0.46 nM. How it is done: (1) Culture of NCI-H526 Cell Line
(2) Treatment of Compounds of the Present Invention and Method of Cell Viability Assay
After treating the compound to each well to make the total volume of 200 μL, it was cultured in a CO2 incubator (Thermo Fisher Science, Cat. No. 4111) for 5 days.
The absorbance of the completely cultured sample was measured by setting the wavelength of a plate reader (BMG Labtech, CLARIOstar Plus) to […], and was measured after shaking for 3 minutes in a plate reader before measurement.
In Table 3, Activity represents IC50 value of each Exemplary Compound treatment group to H526 cell line (A: <30 nM, B: <50 nM, C: <100 nM, D: <200 nM, E: <400 nM).

T1 sequence (P53350 whole entry): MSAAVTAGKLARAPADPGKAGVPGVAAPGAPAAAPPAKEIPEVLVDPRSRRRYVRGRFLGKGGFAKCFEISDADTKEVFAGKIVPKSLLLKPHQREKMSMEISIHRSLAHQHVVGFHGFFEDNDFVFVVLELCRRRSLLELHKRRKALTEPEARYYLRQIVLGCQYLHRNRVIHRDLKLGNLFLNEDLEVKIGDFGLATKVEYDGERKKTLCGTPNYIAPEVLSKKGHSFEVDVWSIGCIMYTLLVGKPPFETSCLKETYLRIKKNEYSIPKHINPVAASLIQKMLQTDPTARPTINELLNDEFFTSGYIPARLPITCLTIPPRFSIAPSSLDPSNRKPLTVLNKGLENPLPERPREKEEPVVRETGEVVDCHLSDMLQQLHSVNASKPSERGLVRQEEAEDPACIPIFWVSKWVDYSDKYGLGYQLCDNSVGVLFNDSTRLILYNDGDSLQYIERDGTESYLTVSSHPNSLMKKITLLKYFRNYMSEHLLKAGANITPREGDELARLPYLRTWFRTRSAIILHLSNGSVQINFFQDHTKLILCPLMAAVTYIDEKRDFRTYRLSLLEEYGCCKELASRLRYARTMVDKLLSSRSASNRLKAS

In the case of `COc1cc(C(=O)N[C@H]2CCN(CCOc3cccc4c3C(=O)N(C3CCC(=O)NC3=O)C4=O)C2)ccc1Nc1ncc2c(n1)N(C1CCCC1)CC(F)(F)C(=O)N2C` (stereo partly drawn) [Compound 9, 4-((9-cyclopentyl-7,7-difluoro-5-methyl-6-oxo-6,7,8,9-tetrahydro-5H-pyrimido[4,5-b][1,4]diazepin-2-yl)amino)-N-((3S)-1-(2-((2-(2,6-dioxopiperidin-3-yl)-1,3-dioxoisoindolin-4-yl)oxy)ethyl)pyrrolidin-3-yl)-3-methoxybenzamide], at PLK1, the “Activity: ratio of the luminescense value of each Exemplary Compound treatment group to DMSO treatment group” value (shortened to “Activity: ratio”) is given as “++ (++<0.6)”. In the data set with MRC-5 cell line, the 50% inhibitory concentration (IC50) is more than 10000 nM.

`CC[C@@H]1C(=O)N(C)c2cnc(Nc3ccc(C(=O)NCCOCCOCCNc4cccc5c4C(=O)N(C4CCC(=O)NC4=O)C5=O)cc3OC)nc2N1C1CCCC1` (stereo partly shown) [Comparative Compound 1, reference compound]: in the data set with MRC-5 cell line (MRC-5, in words), the “cytotoxicity in normal cell line” value is “exhibited a high level of cytotoxicity in normal cell line”.

With `COc1cc(C(=O)NC2CCN(C(=O)CCCSc3cccc4c3C(=O)N(C3CCC(=O)NC3=O)C4=O)CC2)c(F)cc1Nc1ncc2c(n1)N(C1CCCC1)CC(F)(F)C(=O)N2C` (stereo not shown) [Compound 42, 4-((9-cyclopentyl-7,7-difluoro-5-methyl-6-oxo-6,7,8,9-tetrahydro-5H-pyrimido[4,5-b][1,4]diazepin-2-yl)amino)-N-(1-(4-((2-(2,6-dioxopiperidin-3-yl)-1,3-dioxoisoindolin-4-yl)thio)butanoyl)piperidin-4-yl)-2-fluoro-5-methoxybenzamide], the “Activity: ratio” value at PLK1 is reported as “++ (++<0.6)”. Further, the half-maximal inhibitory concentration (IC50) in the data set with NCI-H526 cell line is less than 100 nM.

In the case of `COc1cc(C(=O)NC2CCN(C(=O)COc3cccc4c3C(=O)N(C3CCC(=O)NC3=O)C4=O)CC2)c(F)cc1Nc1ncc2c(n1)N(C1CCCC1)CC(F)(F)C(=O)N2C` (stereo not shown) [Compound 37, 4-((9-cyclopentyl-7,7-difluoro-5-methyl-6-oxo-6,7,8,9-tetrahydro-5H-pyrimido[4,5-b][1,4]diazepin-2-yl)amino)-N-(1-(2-((2-(2,6-dioxopiperidin-3-yl)-1,3-dioxoisoindolin-4-yl)oxy)acetyl)piperidin-4-yl)-2-fluoro-5-methoxybenzamide], the “Activity: ratio” value on PLK1 is listed as “++ (++<0.6)”. This compound returned an IC50 in the data set on NCI-H526 cell line of less than 400 nM.

For the compound `COc1cc(C(=O)NCCCOCCCOCCOc2cccc3c2CN(C2CCC(=O)NC2=O)C3=O)ccc1Nc1ncc2c(n1)N(C1CCCC1)CC(F)(F)C(=O)N2C` (stereo not shown) [Compound 20, 4-((9-cyclopentyl-7,7-difluoro-5-methyl-6-oxo-6,7,8,9-tetrahydro-5H-pyrimido[4,5-b][1,4]diazepin-2-yl)amino)-N-(3-(3-(2-((2-(2,6-dioxopiperidin-3-yl)-1-oxoisoindolin-4-yl)oxy)ethoxy)propoxy)propyl)-3-methoxybenzamide], the “Activity: ratio” value on PLK1 is “++ (++<0.6)”. In the data set with NCI-H526 cell line, this compound had an IC50 of less than 200 nM.

In the case of `COc1cc(C(=O)N2CCC(N3CCC(C#Cc4ccc5c(c4)C(=O)N(C4CCC(=O)NC4=O)C5=O)CC3)CC2)ccc1Nc1ncc2c(n1)N(C1CCCC1)CC(F)(F)C(=O)N2C` (stereo not shown) [Compound 182, 5-((1′-(4-((9-cyclopentyl-7,7-difluoro-5-methyl-6-oxo-6,7,8,9-tetrahydro-5H-pyrimido[4,5-b][1,4]diazepin-2-yl)amino)-3-methoxybenzoyl)-[1,4′-piperidin]-4-yl)ethynyl)-2-(2,6-dioxopiperidin-3-yl)isoindoline-1,3-dione], the “Activity: ratio” value on PLK1 is on record as “++ (++<0.6)”. In the data set with MRC-5 cell line, the concentration for half-maximal inhibition (IC50) stood at 9750 nM.

As to `COc1cc(C(=O)NC2CCN(CCOc3cccc4c3C(=O)N(C3CCC(=O)NC3=O)C4=O)CC2)c(F)cc1Nc1ncc2c(n1)N(C1CCCC1)CC(F)(F)C(=O)N2C` (stereo not shown) [Compound 2, 4-((9-cyclopentyl-7,7-difluoro-5-methyl-6-oxo-6,7,8,9-tetrahydro-5H-pyrimido[4,5-b][1,4]diazepin-2-yl)amino)-N-(1-(2-((2-(2,6-dioxopiperidin-3-yl)-1,3-dioxoisoindolin-4-yl)oxy)ethyl)piperidin-4-yl)-2-fluoro-5-methoxybenzamide], the “Activity: ratio” value at PLK1 was “++ (++<0.6)”. Also, in the data set with NCI-H526 cell line, the IC50 is less than 200 nM.

As for `COc1cc(C(=O)NC2CCCN(C(=O)CN3CCN(c4cccc5c4C(=O)N(C4CCC(=O)NC4=O)C5=O)CC3)C2)ccc1Nc1ncc2c(n1)N(C1CCCC1)CC(F)(F)C(=O)N2C` (stereo not shown) [Compound 122, 4-((9-cyclopentyl-7,7-difluoro-5-methyl-6-oxo-6,7,8,9-tetrahydro-5H-pyrimido[4,5-b][1,4]diazepin-2-yl)amino)-N-(1-(2-(4-(2-(2,6-dioxopiperidin-3-yl)-1,3-dioxoisoindolin-4-yl)piperazin-1-yl)acetyl)piperidin-3-yl)-3-methoxybenzamide], at PLK1, the “Activity: ratio” value is “+++ (+++: <0.3)”. In the data set on NCI-H526 cell line, this compound displayed a half-inhibitory concentration (IC50) of less than 30 nM.

In the case of `COc1cc(C(=O)NC2CCN(CCOc3cccc4c3C(=O)N(C3CCC(=O)NC3=O)C4=O)CC2)c(Cl)cc1Nc1ncc2c(n1)N(C1CCCC1)CC(F)(F)C(=O)N2C` (stereo not shown) [Compound 6, 2-chloro-4-((9-cyclopentyl-7,7-difluoro-5-methyl-6-oxo-6,7,8,9-tetrahydro-5H-pyrimido[4,5-b][1,4]diazepin-2-yl)amino)-N-(1-(2-((2-(2,6-dioxopiperidin-3-yl)-1,3-dioxoisoindolin-4-yl)oxy)ethyl)piperidin-4-yl)-5-methoxybenzamide], the “Activity: ratio” value at PLK1 is recorded as “+++ (+++: <0.3)”. In the data set on NCI-H526 cell line, this compound displayed a 50% inhibitory concentration (IC50) of less than 400 nM.

As for `COc1cc(C(=O)N2CCC(CN3CCN(c4ccc5c(c4)C(=O)N(C4CCC(=O)NC4=O)C5=O)CC3)CC2)ccc1Nc1ncc2c(n1)N(C1CCCC1)CC(F)(F)C(=O)N2C` (stereo not shown) [Compound 97, 5-(4-((1-(4-((9-cyclopentyl-7,7-difluoro-5-methyl-6-oxo-6,7,8,9-tetrahydro-5H-pyrimido[4,5-b][1,4]diazepin-2-yl)amino)-3-methoxybenzoyl)piperidin-4-yl)methyl)piperazin-1-yl)-2-(2,6-dioxopiperidin-3-yl)isoindoline-1,3-dione], the “Activity: ratio” value at PLK1 was “++ (++<0.6)”. Also, in the data set with NCI-H526 cell line, the IC50 was less than 400 nM.

As to `COc1cc(C(=O)NC2CCCN(C(=O)N3CCN(c4cccc5c4C(=O)N(C4CCC(=O)NC4=O)C5=O)CC3)C2)ccc1Nc1ncc2c(n1)N(C1CCCC1)CC(F)(F)C(=O)N2C` (stereo not shown) [Compound 145, 4-((9-cyclopentyl-7,7-difluoro-5-methyl-6-oxo-6,7,8,9-tetrahydro-5H-pyrimido[4,5-b][1,4]diazepin-2-yl)amino)-N-(1-(4-(2-(2,6-dioxopiperidin-3-yl)-1,3-dioxoisoindolin-4-yl)piperazine-1-carbonyl)piperidin-3-yl)-3-methoxybenzamide], at PLK1, the “Activity: ratio” value is “+++ (+++: <0.3)”. This compound also gave a half-maximal inhibitory concentration (IC50) in the data set with NCI-H526 cell line of less than 50 nM.

For the compound `COc1cc(C(=O)NC2CCN(CC3CN(c4ccc5c(c4)C(=O)N(C4CCC(=O)NC4=O)C5=O)C3)CC2)ccc1Nc1ncc2c(n1)N(C1CCCC1)CC(F)(F)C(=O)N2C` (stereo not shown) [Compound 134, 4-((9-cyclopentyl-7,7-difluoro-5-methyl-6-oxo-6,7,8,9-tetrahydro-5H-pyrimido[4,5-b][1,4]diazepin-2-yl)amino)-N-(1-((1-(2-(2,6-dioxopiperidin-3-yl)-1,3-dioxoisoindolin-5-yl)azetidin-3-yl)methyl)piperidin-4-yl)-3-methoxybenzamide], the “Activity: ratio” value on PLK1 is on record as “+++ (+++: <0.3)”. Also, in the data set with NCI-H526 cell line, the IC50 is less than 30 nM.

As for `COc1cc(C(=O)NN2CCN(C3CCN(c4cccc5c4C(=O)N(C4CCC(=O)NC4=O)C5=O)C3)CC2)ccc1Nc1ncc2c(n1)N(C(C)C)CC(F)(F)C(=O)N2C` (stereo not shown) [Compound 52, 4-((7,7-difluoro-9-isopropyl-5-methyl-6-oxo-6,7,8,9-tetrahydro-5H-pyrimido[4,5-b][1,4]diazepin-2-yl)amino)-N-(4-(1-(2-(2,6-dioxopiperidin-3-yl)-1,3-dioxoisoindolin-4-yl)pyrrolidin-3-yl)piperazin-1-yl)-3-methoxybenzamide], the “Activity: ratio” value on PLK1 is recorded as “++ (++<0.6)”. The same compound showed an IC50 in the data set with NCI-H526 cell line of less than 30 nM.

As usually defined, the IC50 is the concentration that gives 50% inhibition.

These data come from patent publication US20250114460A1, “NOVEL PLK1 DEGRADATION INDUCING COMPOUND” (UPPTHERA, INC., priority 2021, published 2025).
